# Measured values from US20240358692A1, “TREATMENT OF SCLERODERMA” (Aisa Pharma, Inc., priority 2023, published 2024).
# Legend:
# [1] = system: participants with SSc-RP; assay: Frequency of weekly symptomatic RP attacks (patient diary), Phase 2a Part A; type: in vivo, human; settings: ITT Part A
# Excerpt: Percent change from baseline evaluation for frequency of weekly RP attacks were or will be used as the primary efficacy variable. The sponsor-developed participant-informed diary will be used to record data. Frequency of weekly RP attacks is defined as the total number of RP attacks divided by the number of days with available diary data within the last 7 days of each dosing period then multiplied by 7. Total number of RP attacks during the last 7 days of screening period divided by the number of days with available data then multiplied by 7 will be used as baseline for the analysis of all periods. The variable will be calculated as follows: […]
# Percent change from baseline evaluation for frequency of weekly RP attacks was and will be the primary efficacy endpoint. Frequency of weekly RP attacks is defined as the total number of RP attacks divided by the number of days with available diary data within the last 7 days of each dosing period then multiplied by 7. Total number of RP attacks during the last 7 days of screening period divided by the number of days with available data then multiplied by 7 will be used as baseline for the analysis of all periods.
# [2] = system: participants with SSc-RP; assay: SHAQ - Visual Analog Scale - Raynaud's; type: in vivo, human
# Excerpt: The SHAQ includes a Raynaud's VAS, which will be reported at screening and each in-clinic visit. The absolute change in Raynaud-VAS, assessed by the participants response to the SHAQ question ‘In the past 7 days, how much have your Raynaud's interfered with your daily activities?’ at baseline and the end of each dosing period will be calculated similar to frequency data as before.
# The standard, validated, patient reported outcome measures tool for SSc patients, the SHAQ, was collected at the time points specified in the study schedules (FIG. 2 and FIGS. 4A and 4B) to assess the participant's quality of life. The SHAQ included a Raynaud's VAS that will also be reported separately.
# [3] = Tadalafil 5 mg, n=1, Excluding Outliers
# [4] = Tadalafil 5 mg, n=2, by Baseline RCS, second block (RCS >5.0)
# [5] = tadalafil 5 mg daily, n=1, excluding outliers, second Baseline RCS subgroup, last 7 days of dosing
structure (smiles),measurement,setting,value
CN1CC(=O)N2[C@H](c3ccc4c(c3)OCO4)c3[nH]c4ccccc4c3C[C@@H]2C1=O [Tadalafil],"Weekly Symptomatic RP Attacks Change from Baseline, Mean",[1]; [3],6.00
same,"Weekly Symptomatic RP Attacks Percent Change from Baseline, Mean",[1]; [3],50.00%
same,"Weekly Symptomatic RP Attacks, Mean",[1]; [3],18.00
same,"Weekly Symptomatic RP Attacks Change from Baseline, Mean",[1]; [4],4.50
same,"Weekly Symptomatic RP Attacks Percent Change from Baseline, Mean",[1]; [4],62.50%
same,"Weekly Symptomatic RP Attacks, Mean",[1]; [4],12.50
same,"Weekly Symptomatic RP Attacks Change from Baseline, Mean",[1]; [5],6.00
same,"Weekly Symptomatic RP Attacks Percent Change from Baseline, Mean",[1]; [5],50.00%
same,"Weekly Symptomatic RP Attacks, Mean",[1]; [5],18.00
same,"SHAQ Visual Analogue Scale - Raynaud's, Change from Baseline, Median","[2]; Tadalafil 5 mg (N = 5), Day 12, PP Population, Part A",−0.500
same,VAS Raynaud's Change from Baseline Max,[2]; tadalafil 5 mg,−0.10
same,VAS Raynaud's Change from Baseline Mean,[2]; tadalafil 5 mg,−0.825
same,VAS Raynaud's Change from Baseline Median,[2]; tadalafil 5 mg,−0.500
same,VAS Raynaud's Change from Baseline Min,[2]; tadalafil 5 mg,−2.20
same,VAS Raynaud's Change from Baseline Q1,[2]; tadalafil 5 mg,−1.500
same,VAS Raynaud's Change from Baseline Q3,[2]; tadalafil 5 mg,−0.150
same,VAS Raynaud's Day 12 Max,[2]; tadalafil 5 mg,9.20
same,VAS Raynaud's Day 12 Median,[2]; tadalafil 5 mg,5.200
same,VAS Raynaud's Day 12 Min,[2]; tadalafil 5 mg,0.20
same,VAS Raynaud's Day 12 Q1,[2]; tadalafil 5 mg,2.200
same,VAS Raynaud's Day 12 Q3,[2]; tadalafil 5 mg,7.700
same,VAS Raynaud's Percent Change from Baseline Max,[2]; tadalafil 5 mg,−3.1%
same,VAS Raynaud's Percent Change from Baseline Mean,[2]; tadalafil 5 mg,−19.71%
same,VAS Raynaud's Percent Change from Baseline Median,[2]; tadalafil 5 mg,−20.67%
same,VAS Raynaud's Percent Change from Baseline Min,[2]; tadalafil 5 mg,−34.4%
same,VAS Raynaud's Percent Change from Baseline Q1,[2]; tadalafil 5 mg,−33.85%
same,VAS Raynaud's Percent Change from Baseline Q3,[2]; tadalafil 5 mg,−5.56%
